In patent US20230391781A1, “MALT1 MODULATORS AND USES THEREOF” (Rheos Medicines, Inc., priority 2020, published 2023):
≈ marks a conversion by molar mass, not a printed value. Where a name gives a salt, the structure may show the parent alone.

Legend:
full length MALT1 = full length MALT1 (Homo sapiens (Human), UniProt Q9UDY8); assay: MALT1 Biochemical Assay; conditions: 15 nM enzyme, 30 μM peptide substrate Ac-Leu-Arg-Ser-Arg-Rh110-dPro, 30 min pre-incubation, 60 min reaction; mean value if tested more than once
Summary of the method: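 Full-length human MALT1 was pre-incubated with compound for 30 min, then cleaved a fluorogenic peptide for 60 min in 50 mM Hepes pH 7.5 with 0.8 M sodium citrate and 1 mM DTT. The reaction was quenched with 10 mM iodoacetate and fluorescence was read at 485/520 nm. IC50 came from four-parameter logistic fits of percent inhibition.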

[1] = tested on: IL-2 in Jurkat (ATCC, clone E6.1) cells stimulated with anti-CD3/28/2; assay: Jurkat IL-2 Assay; type: cell-based; conditions: Homo sapiens; IL-2 inhibition, Jurkat cells, 30 min compound then anti-CD3/28/2 stimulation for 24 hours; mean value if tested more than once; read-out: IC50
Summary of the method: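 Jurkat E6.1 T cells in RPMI/10% FBS (below passage 25) were preincubated with a compound dose-response for 30 min, then stimulated with soluble anti-CD3/28/2 for 24 h. IL-2 in the supernatant was measured by MSD immunoassay and viability by CellTiter-Glo luminescence. IC50 came from a 4-parameter fit, reported as ranges, with the mean used where tested repeatedly.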

[2] = High Throughput Dialysis (HTD) Human Plasma Protein Binding Assay; type: in vitro ADME; conditions: pooled human plasma, pH 7.4, equilibrium dialysis, 37° C., read-out: Human PPB (% Unbound)
Method: Human plasma protein binding of various compounds of formula (I) were evaluated using the equilibrium dialysis method described herein.
The dialysis membrane strips (HTD % a/b, catalog number 1101, HTDialysis LLC, Gales Ferry, CT, USA) were soaked in ultra-pure water at room temperature for approximately 1 hour. Each membrane strip containing 2 membranes was separated and soaked in 20:80 ethanol/water (v/v) for approximately 20 minutes, after which they were ready for use or were stored in the solution at 2-8° C. for up to a month. Prior to the experiment, the membrane was rinsed three times and soaked for 20 minutes in ultra-pure water.
On the day of experiment, the human plasma (BiolVT, catalog number […], sodium heparin or EDTA-K2 anticoagulant, multiple individuals pooled) was thawed by running under cold tap water and centrifuged at 3220 rpm for 5 minutes to remove any clots. The pH value of the resulting plasma was confirmed to be 7.0-8.0.
The test compounds and warfarin control (Stru Chem, catalog number SC-16139) were dissolved in dimethyl sulfoxide (DMSO) to obtain 10 mM stock solutions. DMSO working solutions were prepared at 400 μM. To prepare the loading matrix, the compound working solutions (5 μL) were added in a 1:200 ratio to blank human plasma (995 μL) and mixed thoroughly.
The time zero (T0) samples to be used for recovery determination were prepared as follows: 50 μL aliquots of loading matrix were transferred in triplicate to the sample collection plate. The samples were immediately matched with opposite blank buffer (basic solution (14.2 g/L Na2HPO4 and 8.77 g/L NaCl in deionized water) titrated with acidic solution (15.6 g/L NaH2PO4·2H2O and 8.77 g/L NaCl in deionized water) to pH 7.4±0.1) to obtain a final volume of 100 μL of 1:1 matrix/dialysis buffer (v/v) in each well. 500 μL stop solution (200 ng/mL tolbutamide and 200 ng/mL labetalol in acetonitrile) were added to these TO samples. They were then stored at 2-8° C. for further processing along with other post-dialysis samples.
To load the dialysis device (96-well equilibrium dialysis plate, model 96b, catalog number 1006. HTDialysis LLC, Gales Ferry, CT, USA), an aliquot of 150 μL of the loading matrix was transferred to the donor side of each dialysis well in triplicate, and 150 μL of the dialysis buffer was loaded to the receiver side of the well. The dialysis plate was placed in a humidified incubator at 37° C. with 5% CO2 on a shaking platform that rotated slowly (about 100 rpm) for 4 hours.
At the end of the dialysis, aliquots of 50 μL of the samples were taken from both the buffer side and the matrix side of the dialysis device. These samples were transferred into new 96-well plates (polypropylene, 2.2 mL/well, catalog number DWP-22-96-SQ-U-C-L. Apricot). Each sample was mixed with an equal volume of opposite blank matrix (buffer or matrix) to reach a final volume of 100 μL of 1:1 matrix/dialysis buffer (v/v) in each well. All samples were further processed by adding 500 μL of stop solution containing internal standards. The mixture was vortexed and centrifuged at 4000 rpm for about 20 minutes. An aliquot of 100 μL of supernatant of all the samples was then removed for LC-MS/MS analysis. Test compound concentrations in matrix and buffer samples were expressed as peak area ratios (PAR) of analyte/internal standard (no standard curve).
The single blank samples were prepared by transferring 50 μL of blank matrix to a 96 well plate (polypropylene. 2.2 mL/well, catalog number DWP-22-96-SQ-U-C-L, Apricot) and adding 50 μL of blank PBS buffer to each well. The blank plasma must match the species of plasma used in the plasma side of the well. Then the matrix-matched samples were further processed by adding 500 μL of stop solution containing internal standards, following the same sample processing method as the dialysis samples. […]

[3] = Thermodynamic Solubility (Ts) Assay in Fasted State Simulated Intestinal Fluid (FaSSIF); type: physicochemical; conditions: thermodynamic from solid, FaSSIF pH 6.5, shake flask, 25° C., HPLC-UV
Method: The solubilities of various compounds of formula (I) were determined using a thermodynamic solubility assay. The thermodynamic solubility assay employed the shake flask method followed by HPLC-UV analysis. The following stepwise procedure was followed:
Samples of no less than 2.0 mg were weighed into the lower chambers of Whatman mini-uniprep vials (catalog number UN203NPUORG) and 450 μL of FaSSIF media (0.056% (w/v) lecithin, 0.161% (w/v) sodium taurocholate, 0.39% (w/v) monobasic potassium phosphate, 0.77% (w/v) potassium chloride, deionized H2O, pH 6.5) was added into each vial.
After the buffer was added, the filter pistons of the mini-uniprep vials were placed to the position of the liquid level to ensure the full contact of buffer and compound with the filter during the incubation.
The samples were then vortexed for 2 minutes, after which they were incubated at 25° C. with shaking (880 rpm) for 24 hours.
The samples were then centrifuged at 4000 rpm (20° C.) for 10 min.
The miniunipreps were then compressed to prepare filtrates, and the test concentration of the compound in the filtrate was determined using HPLC-UV (Waters XBridge C18, 4.6*100 mm column; mobile phase A: 0.1% TFA in H2O; mobile phase B: 0.1% TFA in acetonitrile). At least 5 UV standard solutions (e.g. amiodarone hydrochloride, carbamazepine, dexamethasone) were injected into the HPLC from low to high concentration subsequently followed by testing of the thermodynamic solubility supernatants in duplicate. The solubilities of the tested compounds are given in μg/mL.

full length MALT1, sequence (Q9UDY8 whole entry): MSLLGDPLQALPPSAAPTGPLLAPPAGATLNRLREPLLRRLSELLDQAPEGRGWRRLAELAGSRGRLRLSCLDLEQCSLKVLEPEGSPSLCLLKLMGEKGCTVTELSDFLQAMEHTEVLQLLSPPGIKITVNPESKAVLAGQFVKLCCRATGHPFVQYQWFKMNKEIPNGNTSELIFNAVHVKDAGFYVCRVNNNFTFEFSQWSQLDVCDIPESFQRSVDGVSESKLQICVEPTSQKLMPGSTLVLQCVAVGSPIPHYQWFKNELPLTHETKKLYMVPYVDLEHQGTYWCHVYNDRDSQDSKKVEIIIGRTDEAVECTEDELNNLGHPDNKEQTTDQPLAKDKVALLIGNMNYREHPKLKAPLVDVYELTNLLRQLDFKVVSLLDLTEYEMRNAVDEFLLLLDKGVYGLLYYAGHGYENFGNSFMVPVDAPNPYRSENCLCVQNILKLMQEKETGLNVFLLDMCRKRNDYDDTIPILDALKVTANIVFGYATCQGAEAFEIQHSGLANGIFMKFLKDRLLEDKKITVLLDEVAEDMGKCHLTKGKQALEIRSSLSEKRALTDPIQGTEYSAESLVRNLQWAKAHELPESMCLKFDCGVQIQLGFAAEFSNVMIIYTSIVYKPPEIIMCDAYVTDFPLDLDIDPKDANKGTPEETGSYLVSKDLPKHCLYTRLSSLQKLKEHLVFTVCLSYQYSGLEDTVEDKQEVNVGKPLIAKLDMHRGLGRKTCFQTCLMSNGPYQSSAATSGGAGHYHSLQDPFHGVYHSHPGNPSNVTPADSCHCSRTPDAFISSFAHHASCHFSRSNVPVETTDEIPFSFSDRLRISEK

IC50 (full length MALT1) [nM]	IC50 [1] [nM]	fraction unbound at 4 h, 2 µM [2]	solubility at 24 h [3] [µg/mL]	Compound
< 100	100 to 1000	> 0.2	250 to 1750 (≈ 435 to 3040 µM)	CO[C@@H](C)c1c(Nc2ccc([C@H](N(C)C(=O)C3CCS(=O)(=O)CC3)C(F)(F)F)cc2)cnc2nc(Cl)nn12 [Compound 1.1, N-[(1S)-1-[4-({2-chloro-7-[(1S)-1-methoxyethyl]-[1,2,4]triazolo[1,5-a]pyrimidin-6-yl}amino)phenyl]-2,2,2-trifluoroethyl]-N-methyl-1,1-dioxo-1λ^6-thiane-4-carboxamide]
100 to 1000	100 to 1000	< 0.08	< 250	CO[C@@H](C)c1c(Nc2ccc([C@H](N(C)C(=O)C3CCC(F)(F)CC3)C(F)(F)F)cc2)cnc2nc(Cl)nn12 [Compound 1.8, N-[(1S)-1-[4-({2-chloro-7-[(1S)-1-methoxyethyl]-[1,2,4]triazolo[1,5-a]pyrimidin-6-yl}amino)phenyl]-2,2,2-trifluoroethyl]-4,4-difluoro-N-methylcyclohexane-1-carboxamide]
100 to 1000	100 to 1000	> 0.2	> 1750	CO[C@@H](C)c1c(Nc2ccc([C@H](N(C)C(=O)C3CN(C(C)=O)C3)C(F)(F)F)cc2)cnc2nc(Cl)nn12 [Compound 1.15, 1-acetyl-N-[(1S)-1-[4-({2-chloro-7-[(1S)-1-methoxyethyl]-[1,2,4]triazolo[1,5-a]pyrimidin-6-yl}amino)phenyl]-2,2,2-trifluoroethyl]-N-methylazetidine-3-carboxamide]
< 100	< 100	< 0.08	< 250	CC(C)c1c(Nc2ccc([C@H](N(C)C(=O)C3CCS(=O)(=O)CC3)C(F)(F)F)cc2)cnc2nc(Cl)nn12 [Compound 1.18, N-[(1S)-1-(4-{[2-chloro-7-(propan-2-yl)-[1,2,4]triazolo[1,5-a]pyrimidin-6-yl]amino}phenyl)-2,2,2-trifluoroethyl]-N-methyl-1,1-dioxo-1λ^6-thiane-4-carboxamide]
< 100	< 100	< 0.08	< 250	CC(=O)N1CCC(C(=O)N(C)[C@@H](c2ccc(Nc3cnc4nc(Cl)nn4c3C(C)C)cc2)C(F)(F)F)CC1 [Compound 1.19, 1-acetyl-N-[(1S)-1-(4-{[2-chloro-7-(propan-2-yl)-[1,2,4]triazolo[1,5-a]pyrimidin-6-yl]amino}phenyl)-2,2,2-trifluoroethyl]-N-methylpiperidine-4-carboxamide]
100 to 1000	100 to 1000	0.08 to 0.2		CO[C@@H](C)c1c(Nc2ccc([C@H](N(C)C(=O)C3CCN(S(C)(=O)=O)C3)C(F)(F)F)cc2)cnc2nc(Cl)nn12 (stereo partly drawn) [Compound 3.10, N-[(1S)-1-[4-({2-chloro-7-[(1S)-1-methoxyethyl]-[1,2,4]triazolo[1,5-a]pyrimidin-6-yl}amino)phenyl]-2,2,2-trifluoroethyl]-1-methanesulfonyl-N-methylpyrrolidine-3-carboxamide]
< 100	100 to 1000			CO[C@@H](C)c1c(Nc2ccc([C@H](N(C)C(=O)[C@H]3CC[C@H](O)CC3)C(F)(F)F)cc2)cnc2nc(Cl)nn12 [Compound 6.1, (1r,4S)—N—((S)-1-(4-((2-chloro-7-((S)-1-methoxyethyl)-[1,2,4]triazolo[1,5-a]pyrimidin-6-yl)amino)phenyl)-2,2,2-trifluoroethyl)-4-hydroxy-N-methylcyclohexane-1-carboxamide]
< 100	100 to 1000			CC(C)c1c(Nc2ccc([C@H](N(C)C(=O)[C@H]3CC[C@H](C(=O)O)CC3)C(F)(F)F)cc2)cnc2nc(Cl)nn12 [Compound 7.2, (1S,4r)-4-(((S)-1-(4-((2-chloro-7-isopropyl-[1,2,4]triazolo[1,5-a]pyrimidin-6-yl)amino)phenyl)-2,2,2-trifluoroethyl)(methyl)carbamoyl)cyclohexane-1-carboxylic acid ammonia salt]
100 to 1000	> 1000			CO[C@@H](C)c1c(Nc2ccc([C@H](N(C)C(=O)[C@H]3C[C@H](C(=O)O)C3)C(F)(F)F)cc2)cnc2nc(Cl)nn12 [Compound 7.3, (1S,3r)-3-(((S)-1-(4-((2-chloro-7-((S)-1-methoxyethyl)-[1,2,4]triazolo[1,5-a]pyrimidin-6-yl)amino)phenyl)-2,2,2-trifluoroethyl)(methyl)carbamoyl)cyclobutane-1-carboxylic acid]
< 100	100 to 1000	0.08 to 0.2		CO[C@@H](C)c1c(Nc2ccc([C@H](N(C)C(=O)[C@H]3CC[C@H](C(N)=O)CC3)C(F)(F)F)cc2)cnc2nc(Cl)nn12 [Compound 8.1, (1r,4S)—N1-((S)-1-(4-((2-chloro-7-((S)-1-methoxyethyl)-[1,2,4]triazolo[1,5-a]pyrimidin-6-yl)amino)phenyl)-2,2,2-trifluoroethyl)-N1-methylcyclohexane-1,4-dicarboxamide]
100 to 1000	100 to 1000			CO[C@H](C)c1c(Nc2ccc([C@H](N(C)C(=O)C3CCS(=O)(=O)CC3)C(F)(F)F)cc2)cnc2nc(Cl)nn12 [Compound 10.1, N—((S)-1-(4-((2-chloro-7-((R)-1-methoxyethyl)-[1,2,4]triazolo[1,5-a]pyrimidin-6-yl)amino)phenyl)-2,2,2-trifluoroethyl)-N-methyltetrahydro-2H-thiopyran-4-carboxamide 1,1-dioxide]
